Assay [1] relates to PfCelTOS. The assay is classed as in vivo, Plasmodium falciparum. The note with it: BALB/c mice; SE dose 0.5%-2% experiment; GLA- or Montanide-containing vaccines.
The test system of assay [2] is PfCelTOS. Put plainly: Antibody endpoint titers (IgG, IgG1, IgG2a) after immunization with PfCelTOS vaccine compositions. The note with it: BALB/c mice; SE dose 0.02%-2% experiment; GLA (SE or AF) compared to same vaccine composition without GLA.
Method: On the day of immunization, the emulsion was diluted with PBS to the specified oil concentrations and mixed with antigen and GLA-AF (where applicable). […] Throughout the manuscript the emulsion dose is referred to as the % v/v of oil in the final vaccine formulation; the ratio of oil to emulsifier is kept constant at all doses.
Endpoint titer was determined using Prism (GraphPad Software, La Jolla, Calif.) following a sigmoidal fit (variable slope) of the values determined at dilution, with the endpoint titer corresponding to a cutoff value (C) determined as described previously [10] with C=X+SDf, where X is the average and SD is the standard deviation of the negative sera control plate, and f is the multiplier at the 99.9% confidence level. A cutoff value of 0.1 OD was assigned if the cutoff value as determined above was less than 0.1 OD. On rare occasions, individual plate wells registered an abnormally high reading near the highest dilutions. These were excluded from the sigmoidal fit by employing the Grubb's test on the suspect value, comparing to the 4 dilutions surrounding the dilution in question at the 99% confidence level [11].
BALB/c mice were immunized 3 times with PfCelTOS vaccine compositions with 3 weeks between injections.

As to glucopyranosyl lipid adjuvant [GLA], the antibody-secreting plasma cells entry in the assay with PfCelTOS [1] is “Higher numbers”. Moreover, the IgG2a response entry in the assay on PfCelTOS [2] is listed as “stronger”.

Source of the values: patent publication US11510875B2, “Adjuvant formulations comprising TLR4 agonists and methods of using the same” (priority 2012, dated 2022).
